According to patent US10149887B2, “Peptides and peptidomimetics in combination with t cell activating and/or checkpoint inhibiting agents for cancer treatment” (CanBas Co., Ltd., priority 2015, dated 2018):
Like-named read-outs stand apart in the source and are kept apart here. Square brackets hold non-standard residues; d marks the D form. Peptide text beside a SMILES is read from it. dPhe(F5) = N[C@H](Cc1c(F)c(F)c(F)c(F)c1F)C(=O)O; dBpa = N[C@H](Cc1ccc(C(=O)c2ccccc2)cc1)C(=O)O; dCha = N[C@H](CC1CCCCC1)C(=O)O

What was measured:
[1] = test system: Jurkat cells; assay: Side effect of peptide used alone: Jurkat cell cycle disturbance (flow cytometry); format: cell-based; settings: dose that produced Jurkat cell cycle disturbance, peptide alone
Method in brief: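 Cell-cycle profiles were obtained by flow cytometry after propidium iodide staining in Krishan's solution for 1 hr at 4 °C. The value is the peptide dose given alone that disturbed the cell cycle, seen as significant SubG1 (dead) cells or unusually variable DNA content.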

[2] = test system: HUVEC; assay: G2 checkpoint abrogation by CBP501 combined with cis-platin, flow cytometry; format: cell-based, human; settings: umbilical vein endothelium, cis-platin 3 μg/ml 3 hr, then 45 hr
Description: The medium was aspirated, fresh medium without these compounds was added and the cells were incubated for an additional 45 hr. The cells including floating cells were harvested using trypsin-EDTA solution, incubated with Krishan's solution and analyzed for DNA content by flow cytometry as previously described.

[3] = Human serum treatment analysis (residual G2 checkpoint abrogating activity); format: in vitro ADME; settings: 37 degrees
Description: Serum analysis was performed to determine the stability of peptides in mouse and human serum. Briefly, peptides (10 mM or 2.5 mM) were incubated with freshly prepared human serum at 37 degrees for 1 hr. […] Jurkat cells were treated with the serum with or without peptides and bleomycin (40 μg/ml) and incubated for 24 hr. The population of G2 phase cells was determined by flow cytometry as previously described. The residual G2 checkpoint abrogating activity of serum treated peptides were determined by comparing the % G2 cells of the treated serum and the standard curve produced with medium treated peptides, bleomycin and Jurkat cells (Table 5A).

[4] = Mouse serum treatment analysis (residual CBP501 by HPLC); format: in vitro ADME; settings: CBP501 10 mM, 37 degree
[5] = In vivo half life in mouse serum (HPLC); settings: 40 mg/kg ip, read-out: Half-life after 40 mg/kg intra-peritoneal injection (converted)
[6] = Maximal tolerated dose in mouse by single injection; settings: in vivo, observed for a week
[7] = test system: RAW264.7; assay: TNF release from macrophage cell line RAW264.7 (ELISA); format: cell-based, mouse; settings: 0.1 or 1 μM CBP501, LPS
Description: The released TNF were measured by ELISA.

[8] = test system: CBP501-sensitive human cancer cell lines; assay: Intracellular accumulation of CDDP; format: cell-based
[9] = test system: calreticulin; assay: Cell surface calreticulin exposure in CT26WT cells (FACS); format: cell-based, murine; settings: 10-20 uM CDDP with 0.5 μM CBP501, 45 min
Description: Two days later, the cells were collected and analyzed by FACS with specific calreticulin antibody and propidium iodide (n=3). Samples were compared by student's t-test. *P<0.05 **P<0.01, compared with untreated cells, and ^†P<0.05, ^††P<0.01, compared with the corresponding CDDP alone.
After changing with fresh drug-free medium, cells were incubated for 24, 48, or 72 hours for Immunoblotting analysis of phospho-eIF2-alpha, for calreticulin analysis by FACS, or for HMGB1 ELISA.
Cells were collected and washed with PBS, followed by fixation with PBS containing 0.25% PFA for 5 minutes. The fixed cells were washed twice with ice-cold PBS and treated on ice with anti-calreticulin antibody (abcam) diluted with PBS containing 2% FBS (1/200) for 30 minutes. The primary antibody were removed with twice PBS containing 2% FBS wash and treated with alexa488-condjugated secondary antibody diluted with PBS containing 2% FBS (1/500) for 30 minutes at RT. The secondary antibody were removed with twice PBS and treated on ice with propidium iodide (1 ug/ml) for more than 5 minutes, followed by FACS analysis using FACSCalibur.

Structure (SMILES): N=C(N)NCCC[C@@H](NC(=O)[C@@H](CCCNC(=N)N)NC(=O)[C@@H](CCC(N)=O)NC(=O)[C@@H](CCCNC(=N)N)NC(=O)[C@@H](CCCNC(=N)N)NC(=O)[C@@H](CCCNC(=N)N)NC(=O)[C@@H](CC1CCCCC1)NC(=O)[C@@H](Cc1c(F)c(F)c(F)c(F)c1F)NC(=O)[C@@H](CO)NC(=O)[C@@H](Cc1c[nH]c2ccccc12)NC(=O)[C@@H](CO)NC(=O)[C@H](N)Cc1ccc(C(=O)c2ccccc2)cc1)C(=O)O [CBP501, (d-Bpa)(d-Ser)(d-Trp)(d-Ser)(d-Phe-2,3,4,5,6-F)(d-Cha)(d-Arg)(d-Arg)(d-Arg)(d-Gln)(d-Arg)(d-Arg)] (H-[dBpa][dS][dW][dS][dPhe(F5)][dCha][dR][dR][dR][dQ][dR][dR]-OH; N-terminus and C-terminus assumed)
- Appearance of side effect when used alone [1]: >50 µM
- G2 checkpoint abrogating dose of CBP501, cis-platin [2]: >50 µM
- Residual activity of peptide after 1 hr human serum treatment [3]: >50% of original
- Residual peptide after 1 hr mouse serum treatment (Mouse serum treatment analysis) [4]: >90%
- half-life [5]: 3 h
- MTD at 1 week ([6]; ip, single intra-peritoneal injection, read-out: MTD (ip)): 98.8 mg/kg
- MTD at 1 week ([6]; single intravenous injection, read-out: MTD (iv)): 10 mg/kg
- Cytokine secretion (TNF release) of macrophages [7]: Inhibition of cytokine secretion
- Intracellular accumulation of CDDP, CDDP combined with CBP501 vs CDDP alone [8]: 1.5 to 3 times
- Calreticulin exposure to the cell surface [9]: Positive effect
